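Five compound concentrations were applied to cells in 96-well plates for 48 hours; endpoints were derived by simple linear interpolation of the resulting dose-response curve. Abbreviation: GI50, concentration required for 50% inhibition of growth.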 Active and inactive are the calls of the source. No stated cut-off is given here; in the data, active = GI50 up to about 1.1 µM and inactive = higher.
Experiments:
Assay in all cases: NCI anticancer screen, dose series, 48 h
[1] = system: SK-MEL-5
[2] = system: ACHN
[3] = system: PC-3
[4] = system: OVCAR-8
[5] = system: MDA-N
[6] = system: A549
[7] = system: IGROV-1
[8] = system: UACC-62
[9] = system: SR
[10] = system: UO-31
[11] = system: HCT-116
[12] = system: NCI/ADR-RES
[13] = system: NCI-H522
[14] = system: SNB-75
[15] = system: KM12
[16] = system: NCI-H23
[17] = system: OVCAR-3
[18] = system: U-251
[19] = system: COLO 205
[20] = system: SK-MEL-28
[21] = system: SK-MEL-2
[22] = system: RPMI-8226
[23] = system: Hs-578T
[24] = system: EKVX
[25] = system: 786-0
[26] = system: K562
[27] = system: A498
[28] = system: HT-29
[29] = system: MCF7
[30] = system: OVCAR-5
[31] = system: SF-539
[32] = system: SNB-19
[33] = system: LOX IMVI
[34] = system: SN12C
[35] = system: NCI-H226
[36] = system: Malme-3M
[37] = system: OVCAR-4
[38] = system: TK-10
[39] = system: RXF 393
[40] = system: SK-OV-3
[41] = system: UACC-257
[42] = system: CAKI-1
[43] = system: SW-620
[44] = system: HOP-62
[45] = system: SF-295
[46] = system: MDA-MB-435
[47] = system: SF-268
[48] = system: M14
[49] = system: HCC 2998
[50] = system: MDA-MB-231
[51] = system: NCI-H460
[52] = system: DU-145
[53] = system: T47D
[54] = system: BT-549
[55] = system: HOP-92
[56] = system: HCT-15
[57] = system: CCRF-CEM
[58] = system: MOLT-4
[59] = system: HL-60

Measured: GI50

N=C(N)N/N=C(\c1ccc(Cl)cc1)C1CC1
19 µM: [56]
inactive: [1] 15.6 µM | [2] 21.8 µM | [3] 16.2 µM | [4] 20.7 µM | [5] 16.1 µM | [6] 32.4 µM | [7] 16.2 µM | [8] 15.9 µM | [9] 11.4 µM | [10] 24.6 µM | [11] 16 µM | [12] 25.4 µM | [13] 14.8 µM | [14] 22.2 µM | [15] 18.5 µM | [16] 27.1 µM | [17] 19.4 µM | [18] 14.2 µM | [19] 17.2 µM | [20] 19.3 µM | [21] 18.3 µM | [22] 18.5 µM | [23] 25 µM | [24] 23.9 µM | [25] 16.9 µM | [26] 34.8 µM | [27] 14.4 µM | [28] 16.5 µM | [29] 17.1 µM | [30] 17.9 µM | [31] 17.2 µM | [32] 29 µM | [33] 16.4 µM | [34] 19.1 µM | [35] 16.3 µM | [36] 14.9 µM | [37] 33 µM | [38] 16.3 µM | [39] 33.9 µM | [40] 27.5 µM | [41] 14.5 µM | [42] 39 µM | [43] 18.4 µM | [44] 19 µM | [45] 21.3 µM | [46] 16.9 µM | [47] 28.9 µM | [48] 15.4 µM | [49] 7 µM | [50] 18.5 µM | [51] 15.6 µM | [52] 22.6 µM | [53] 19.5 µM | [54] 24.6 µM | [55] 22.3 µM

CC#CC#C/C=C1/O[C@]2(CCC(OC(=O)CC(C)C)CO2)[C@@H]2O[C@H]12 (some centres not stated)
21 µM: [56]
inactive: [2] 21 µM | [3] 23.5 µM | [57] 7.69 µM | [4] 32.4 µM | [5] 22.5 µM | [6] 39.6 µM | [7] 91.4 µM | [8] 23.3 µM | [9] 28.1 µM | [10] 18.9 µM | [11] 15.4 µM | [12] 28.4 µM | [13] 19.3 µM | [14] 78.5 µM | [15] 27 µM | [16] 24.5 µM | [17] 21.5 µM | [18] 21.7 µM | [21] 21.6 µM | [22] 19.7 µM | [23] 52.5 µM | [24] 28.9 µM | [25] 20.9 µM | [26] 31.3 µM | [27] > 100 µM | [28] 18.2 µM | [29] 33 µM | [30] 28.2 µM | [32] 61.7 µM | [33] 16.2 µM | [34] 22.2 µM | [36] 21.8 µM | [37] 29.6 µM | [38] 25.7 µM | [39] 21.7 µM | [58] 18.7 µM | [40] > 100 µM | [41] 30.3 µM | [42] 18.2 µM | [43] 19.2 µM | [44] 42.7 µM | [46] 21.1 µM | [47] 24.4 µM | [48] 21.9 µM | [49] 19.5 µM | [50] 24 µM | [51] 36.1 µM | [52] 42.5 µM | [53] 20.5 µM | [54] 24.1 µM | [55] 27.4 µM | [59] 19.7 µM

CCC1C2Cc3ccc(O)cc3C1(CC)CCN2C (configuration not stated)
> 100 µM: [56]
inactive: [1] > 100 µM | [2] > 100 µM | [3] > 100 µM | [57] > 100 µM | [4] > 100 µM | [5] > 100 µM | [6] > 100 µM | [7] > 100 µM | [8] > 100 µM | [9] > 100 µM | [10] > 100 µM | [11] > 100 µM | [12] > 100 µM | [13] > 100 µM | [14] > 100 µM | [15] > 100 µM | [16] > 100 µM | [17] > 100 µM | [18] > 100 µM | [19] > 100 µM | [20] > 100 µM | [21] > 100 µM | [22] > 100 µM | [23] > 100 µM | [24] > 100 µM | [25] > 100 µM | [26] > 100 µM | [27] > 100 µM | [28] > 100 µM | [29] > 100 µM | [30] > 100 µM | [31] > 100 µM | [32] > 100 µM | [33] > 100 µM | [34] > 100 µM | [35] > 100 µM | [36] > 100 µM | [37] > 100 µM | [38] > 100 µM | [39] > 100 µM | [58] > 100 µM | [40] > 100 µM | [41] 77.3 µM | [42] > 100 µM | [43] > 100 µM | [44] > 100 µM | [45] > 100 µM | [46] > 100 µM | [47] > 100 µM | [48] > 100 µM | [50] > 100 µM | [51] > 100 µM | [52] > 100 µM | [53] > 100 µM | [54] > 100 µM | [55] > 100 µM | [59] > 100 µM

Source: ChEMBL document CHEMBL1201862, “PubChem BioAssay data set” (2004)
